{
  "source": "ChEMBL document CHEMBL4420073",
  "about": "“Small molecule inhibitors of MUC1 and methods of identifying the same” (2015)",
  "key": {"[1]": {"molecular_target": "Mucin-1 (Homo sapiens) (UniProt P15941)", "sequence (P15941 24-1097 limits assumed)": "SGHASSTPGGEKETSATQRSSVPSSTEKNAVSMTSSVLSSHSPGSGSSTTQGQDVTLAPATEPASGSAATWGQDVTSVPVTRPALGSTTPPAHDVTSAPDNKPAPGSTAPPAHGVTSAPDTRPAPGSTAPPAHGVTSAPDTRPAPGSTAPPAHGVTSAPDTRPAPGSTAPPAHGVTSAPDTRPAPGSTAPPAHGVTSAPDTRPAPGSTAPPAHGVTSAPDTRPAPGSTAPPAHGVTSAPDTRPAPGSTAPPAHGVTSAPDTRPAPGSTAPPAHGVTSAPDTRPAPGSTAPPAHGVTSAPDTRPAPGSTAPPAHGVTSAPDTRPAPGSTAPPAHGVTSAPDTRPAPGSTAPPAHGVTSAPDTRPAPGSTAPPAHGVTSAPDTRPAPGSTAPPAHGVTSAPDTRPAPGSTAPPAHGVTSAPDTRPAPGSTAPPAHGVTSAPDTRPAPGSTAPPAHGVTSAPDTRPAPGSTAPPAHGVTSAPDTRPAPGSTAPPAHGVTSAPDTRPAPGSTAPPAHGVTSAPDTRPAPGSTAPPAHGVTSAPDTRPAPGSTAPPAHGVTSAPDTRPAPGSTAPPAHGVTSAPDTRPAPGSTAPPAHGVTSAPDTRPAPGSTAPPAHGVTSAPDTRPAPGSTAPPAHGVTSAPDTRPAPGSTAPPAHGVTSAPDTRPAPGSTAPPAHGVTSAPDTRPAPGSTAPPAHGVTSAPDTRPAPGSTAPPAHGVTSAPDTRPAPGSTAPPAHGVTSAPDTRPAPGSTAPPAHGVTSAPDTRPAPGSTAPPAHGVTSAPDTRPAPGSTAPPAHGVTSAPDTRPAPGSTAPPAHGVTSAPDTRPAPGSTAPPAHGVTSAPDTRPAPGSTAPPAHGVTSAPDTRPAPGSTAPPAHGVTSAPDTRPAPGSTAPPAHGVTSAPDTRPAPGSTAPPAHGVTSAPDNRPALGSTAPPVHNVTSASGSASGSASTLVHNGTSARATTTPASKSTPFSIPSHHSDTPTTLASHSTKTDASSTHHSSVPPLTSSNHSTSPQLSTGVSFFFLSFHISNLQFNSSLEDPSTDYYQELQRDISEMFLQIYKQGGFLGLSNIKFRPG", "sequence (P15941 1098-1255 limits assumed)": "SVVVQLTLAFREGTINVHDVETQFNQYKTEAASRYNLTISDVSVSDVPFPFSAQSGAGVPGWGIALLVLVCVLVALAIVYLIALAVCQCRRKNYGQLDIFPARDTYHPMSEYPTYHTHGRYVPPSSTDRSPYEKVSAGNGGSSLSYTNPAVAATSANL", "assay": "Inhibition of His-tagged MUC1-CD dimerization (unknown origin) assessed as decrease in oligomer formation incubated for 1 hr by SDS-polyacrylamide electrophoresis method based luminescence assay"}, "[2]": {"molecular_target": "Mucin-1 (Homo sapiens) (UniProt P15941)", "assay": "Inhibition of MUC1-CD dimerization (unknown origin) expressed in HEK293 cells assessed as disruption of interaction between Flag-MUC1-CD and GFP-MUC1-CD at […] by coimmunoprecipitation assay", "format": "cell-based"}, "[3]": {"assay": "Drug uptake in human ZR-75-1 cells assessed as mean fluorescence intensity at 5 uM using FITC-tagged peptide incubated for 2 hrs by flow cytometry (reference value: 24)", "format": "ADME, cell-based", "settings": "zr-75-1, 2 h"}, "[4]": {"assay": "Drug uptake in human ZR-75-1 cells assessed as mean fluorescence intensity at 5 uM using FITC-tagged peptide incubated for 6 hrs by flow cytometry (reference value: 24)", "format": "ADME, cell-based", "settings": "zr-75-1, 6 h"}, "[5]": {"assay": "Drug uptake in human ZR-75-1 cells assessed as mean fluorescence intensity at 5 uM using FITC-tagged peptide incubated for 24 hrs by flow cytometry (reference value: 24)", "format": "ADME, cell-based", "settings": "zr-75-1, 24 h"}, "[6]": {"system": "ZR-75-1", "assay": "Effect on cellular MUC1-C levels in human ZR-75-1 cells at 5 uM using FITC-tagged peptide by Western blot analysis", "format": "functional, cell-based"}, "[7]": {"molecular_target": "Mucin-1 (Homo sapiens) (UniProt P15941)", "assay": "Inhibition of MUC1 nuclear import in human ZR-75-1 cells assessed as decrease in nuclear MUC1-C levels at 5 uM by Western blot analysis", "format": "cell-based"}, "[8]": {"molecular_target": "Mucin-1 (Homo sapiens) (UniProt P15941)", "assay": "Inhibition of MUC1 nuclear import in human MCF7 cells assessed as decrease in nuclear MUC1-C levels at 5 uM by Western blot analysis", "format": "cell-based"}, "[9]": {"system": "ZR-75-1", "assay": "Induction of cell cycle arrest in human ZR-75-1 cells assessed as accumulation at G1 phase at 5 uM incubated for 3 days by propidium iodide staining based flow cytometry (reference value: 64%)", "format": "functional"}, "[10]": {"system": "ZR-75-1", "assay": "Induction of cell cycle arrest in human ZR-75-1 cells assessed as accumulation at S phase at 5 uM incubated for 3 days by propidium iodide staining based flow cytometry (reference value: 29%)", "format": "functional"}, "[11]": {"system": "ZR-75-1", "assay": "Induction of cell cycle arrest in human ZR-75-1 cells assessed as accumulation at G2 phase at 5 uM incubated for 3 days by propidium iodide staining based flow cytometry (reference value: 7%)", "format": "functional"}, "[12]": {"system": "ZR-75-1", "assay": "Induction of cell cycle arrest in human ZR-75-1 cells assessed as accumulation at G1 phase at 5 uM incubated for 4 days by propidium iodide staining based flow cytometry (reference value: 64%)", "format": "functional"}, "[13]": {"system": "ZR-75-1", "assay": "Induction of cell cycle arrest in human ZR-75-1 cells assessed as accumulation at S phase at 5 uM incubated for 4 days by propidium iodide staining based flow cytometry (reference value: 29%)", "format": "functional"}, "[14]": {"system": "ZR-75-1", "assay": "Induction of cell cycle arrest in human ZR-75-1 cells assessed as accumulation at G2 phase at 5 uM incubated for 4 days by propidium iodide staining based flow cytometry (reference value: 7%)", "format": "functional"}, "[15]": {"system": "ZR-75-1", "assay": "Induction of necrosis in human ZR-75-1 cells at 5 uM incubated for 3 days by propidium iodide staining based flow cytometry (reference value: 8%)", "format": "functional"}, "[16]": {"system": "ZR-75-1", "assay": "Induction of necrosis in human ZR-75-1 cells at 5 uM incubated for 4 days by propidium iodide staining based flow cytometry (reference value: 8%)", "format": "functional"}, "[17]": {"system": "MCF7", "assay": "Induction of cell cycle arrest in human MCF7 cells assessed as accumulation at G1 phase at 5 uM incubated for 3 days by propidium iodide staining based flow cytometry (reference value: 70%)", "format": "functional"}, "[18]": {"system": "MCF7", "assay": "Induction of cell cycle arrest in human MCF7 cells assessed as accumulation at S phase at 5 uM incubated for 3 days by propidium iodide staining based flow cytometry (reference value: 21%)", "format": "functional"}, "[19]": {"system": "MCF7", "assay": "Induction of cell cycle arrest in human MCF7 cells assessed as accumulation at G2 phase at 5 uM incubated for 3 days by propidium iodide staining based flow cytometry (reference value: 9%)", "format": "functional"}, "[20]": {"system": "MCF7", "assay": "Induction of necrosis in human MCF7 cells at 5 uM incubated for 3 days by propidium iodide staining based flow cytometry (reference value: 5%)", "format": "functional"}, "[21]": {"system": "MCF7", "assay": "Induction of necrosis in human MCF7 cells at 5 uM incubated for 4 days by propidium iodide staining based flow cytometry (reference value: 5%)", "format": "functional"}, "[22]": {"system": "ZR-75-1", "assay": "Growth inhibition in human ZR-75-1 cells assessed as reduction in cell number up to 96 hrs in presence of MUC1 siRNA", "format": "functional, cell-based"}, "[23]": {"system": "ZR-75-1", "assay": "Growth inhibition in human ZR-75-1 cells assessed as reduction in cell number up to 96 hrs in presence of control siRNA", "format": "functional, cell-based"}, "[24]": {"system": "HEK293", "assay": "Growth inhibition of HEK293 cells assessed as reduction in cell number up to 96 hrs", "format": "cell-based", "settings": "human, hek293, 96 h"}, "[25]": {"system": "MCF-10A", "assay": "Induction of cell cycle arrest in human MCF10A cells assessed as accumulation at S phase at 5 uM incubated for 3 days by propidium iodide staining based flow cytometry (reference value: 38%)", "settings": "72 h"}, "[26]": {"system": "MCF-10A", "assay": "Induction of cell cycle arrest in human MCF10A cells assessed as accumulation at S phase at 5 uM incubated for 4 days by propidium iodide staining based flow cytometry (reference value: 38%)", "settings": "96 h"}, "[27]": {"system": "MCF-10A", "assay": "Growth inhibition in human MCF10A cells assessed as reduction in cell number up to 96 hrs", "format": "cell-based"}, "[28]": {"assay": "Toxicity in nu/nu mouse assessed as effect on body weight at 50 mg/kg, ip for 11 days measured over next 28 days after stopping drug administration", "format": "organism-based", "settings": "in vivo, 672 h"}, "[29]": {"system": "ZR-75-1", "assay": "Antitumor activity against human ZR-75-1 xenografted in nu/nu mouse assessed as reduction in tumor growth at 50 mg/kg/day, ip for 7 days measured on day 7", "format": "functional, organism-based"}, "[30]": {"system": "ZR-75-1", "assay": "Antitumor activity against human ZR-75-1 xenografted in nu/nu mouse assessed as reduction in tumor growth at 50 mg/kg/day, ip for 7 days followed by treatment cessation and measured over next 17 days", "format": "functional, organism-based"}, "[31]": {"system": "ZR-75-1", "assay": "Antitumor activity against human ZR-75-1 xenografted in nu/nu mouse assessed as induction of necrosis in tumor at 50 mg/kg/day, ip for 21 days", "format": "functional, organism-based"}, "[32]": {"system": "ZR-75-1", "assay": "Suppression of MUC1 protein expression in tumor area of human ZR-75-1 xenografted in nu/nu mouse at 50 mg/kg/day, ip for 21 days", "format": "functional, organism-based"}, "[33]": {"molecular_target": "Mucin-1 (Homo sapiens) (UniProt P15941)", "assay": "Inhibition of biotinylated MUC1-CD dimerization (unknown origin) assessed as decrease in oligomer formation at 100 uM by streptavidin-HRP based assay relative to control"}},
  "note": "Activity calls are given as the source filed them. The rule behind the calls is not given here.",
  "data": [
    {"smiles": "CC[C@H](C)[C@H](NC(=O)[C@H](CC(=O)O)NC(=O)[C@H](CC(C)C)NC(=O)[C@H](CCC(N)=O)NC(=O)CNC(=O)[C@H](Cc1ccc(O)cc1)NC(=O)[C@H](CC(N)=O)NC(=O)[C@H](CCCCN)NC(=O)[C@H](CCCNC(=N)N)NC(=O)[C@H](CCCNC(=N)N)NC(=O)[C@H](CS)NC(=O)[C@H](CCC(N)=O)NC(=O)[C@H](CS)NC(=O)[C@H](CCCNC(=N)N)NC(=O)[C@@H](CCCNC(=N)N)NC(=O)[C@@H](CCCNC(=N)N)NC(=O)[C@@H](CCCNC(=N)N)NC(=O)[C@@H](CCCNC(=N)N)NC(=O)[C@@H](CCCNC(=N)N)NC(=O)[C@@H](CCCNC(=N)N)NC(=O)[C@@H](CCCNC(=N)N)NC(=O)[C@H](N)CCCNC(=N)N)C(=O)N[C@@H](Cc1ccccc1)C(=O)N1CCC[C@H]1C(=O)O", "values": [
      {"measurement": "inhibition", "setting": "[1]", "value": "Active"},
      {"measurement": "inhibition", "setting": "[2]", "value": "Active"},
      {"measurement": "Flu intensity", "setting": "[3]", "value": 145},
      {"measurement": "Flu intensity", "setting": "[4]", "value": 252},
      {"measurement": "Flu intensity", "setting": "[5]", "value": 615},
      {"measurement": "Activity", "setting": "[6]", "value": "inactive"},
      {"measurement": "inhibition", "setting": "[7]", "value": "Active"},
      {"measurement": "inhibition", "setting": "[8]", "value": "Active"},
      {"measurement": "Activity", "setting": "[9]", "value": 29, "unit": "%"},
      {"measurement": "Activity", "setting": "[10]", "value": 69, "unit": "%"},
      {"measurement": "Activity", "setting": "[11]", "value": 2, "unit": "%"},
      {"measurement": "Activity", "setting": "[12]", "value": 49, "unit": "%"},
      {"measurement": "Activity", "setting": "[13]", "value": 37, "unit": "%"},
      {"measurement": "Activity", "setting": "[14]", "value": 14, "unit": "%"},
      {"measurement": "Activity", "setting": "[15]", "value": 34, "unit": "%"},
      {"measurement": "Activity", "setting": "[16]", "value": 74, "unit": "%"},
      {"measurement": "Activity", "setting": "[17]", "value": 54, "unit": "%"},
      {"measurement": "Activity", "setting": "[18]", "value": 46, "unit": "%"},
      {"measurement": "Activity", "setting": "[19]", "value": 0, "unit": "%"},
      {"measurement": "Activity", "setting": "[20]", "value": 24, "unit": "%"},
      {"measurement": "Activity", "setting": "[21]", "value": 44, "unit": "%"},
      {"measurement": "growth inhibition (GI)", "setting": "[22]", "value": "inactive"},
      {"measurement": "growth inhibition (GI)", "setting": "[23]", "value": "Active"},
      {"measurement": "growth inhibition (GI)", "setting": "[24]", "value": "Non-Toxic"},
      {"measurement": "Activity", "setting": "[25]", "value": 42, "unit": "%"},
      {"measurement": "Activity", "setting": "[26]", "value": 42, "unit": "%"},
      {"measurement": "growth inhibition (GI)", "setting": "[27]", "value": "Non-Toxic"},
      {"measurement": "Activity", "setting": "[28]", "value": "Non-Toxic"},
      {"measurement": "Activity", "setting": "[29]", "value": "Active"},
      {"measurement": "Activity", "setting": "[30]", "value": "Active"},
      {"measurement": "Activity", "setting": "[31]", "value": "Active"},
      {"measurement": "Activity", "setting": "[32]", "value": "Active"}
    ]},
    {"smiles": "CCCc1c(C)c2ccc(OC(=O)C(C)NC(=O)OCc3ccccc3)cc2oc1=O", "note": "(stereo not drawn)", "values": [
      {"measurement": "inhibition", "setting": "[33]", "value": "> 50", "unit": "%"}
    ]}
  ]
}
